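Cultured in 96-well plates, cells were exposed to test compound for 48 hours across five concentrations. Here, GI50 denotes the concentration required for 50% inhibition of growth.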 Activity calls are given as the source filed them. No stated cut-off is given here; in the data, active = GI50 up to about 1.1 µM and inactive = higher.
Assays:
Assay in all cases: NCI anticancer screen, dose series, 48 h
SW-620 = system: SW-620
KM12 = system: KM12
HOP-62 = system: HOP-62
MDA-MB-231 = system: MDA-MB-231
PC-3 = system: PC-3
T47D = system: T47D
NCI-H23 = system: NCI-H23
HCT-116 = system: HCT-116
HT-29 = system: HT-29
HOP-92 = system: HOP-92
SK-MEL-2 = system: SK-MEL-2
MDA-MB-435 = system: MDA-MB-435
SNB-75 = system: SNB-75
786-0 = system: 786-0
RXF 393 = system: RXF 393
MDA-N = system: MDA-N
EKVX = system: EKVX
NCI-H460 = system: NCI-H460
SF-539 = system: SF-539
M14 = system: M14

Measured: GI50

COC(=O)c1cc(C)ccc1C1CN=NC12Cc1c(C)cc(C)cc1C2=O (stereo not given)
inactive: SW-620 33.2 µM | KM12 16.5 µM | HOP-62 29 µM | MDA-MB-231 19.7 µM | PC-3 27.5 µM | T47D 31 µM | NCI-H23 19.1 µM | HCT-116 14.7 µM | HT-29 18.3 µM | HOP-92 13.8 µM | SK-MEL-2 16.4 µM | MDA-MB-435 16.3 µM | SNB-75 23.9 µM | 786-0 25.7 µM | RXF 393 22.2 µM | MDA-N 14.4 µM | EKVX 33.5 µM | NCI-H460 18.1 µM | SF-539 17.1 µM | M14 17 µM

CCOC(=O)C(C(=S)SC)c1nn2c(=O)cc(C)nc2s1 (stereo not given)
inactive: SW-620 20.3 µM | KM12 26.2 µM | HOP-62 22.4 µM | MDA-MB-231 19.5 µM | PC-3 20.9 µM | T47D 19 µM | NCI-H23 20.6 µM | HCT-116 18.6 µM | HT-29 21.5 µM | HOP-92 21.7 µM | SK-MEL-2 20.8 µM | MDA-MB-435 18.2 µM | SNB-75 20.7 µM | 786-0 20.3 µM | RXF 393 20.8 µM | MDA-N 15.8 µM | EKVX 18.8 µM | NCI-H460 18.8 µM | SF-539 18.3 µM | M14 15.6 µM

COc1cc2c3cc1Oc1c(OC)c(OC)cc4c1C(Cc1ccc(O)c(c1)Oc1ccc(cc1)CC3N(C)CC2)CN(C)C4 (stereo not given)
inactive: SW-620 12.9 µM | KM12 13.2 µM | HOP-62 20 µM | MDA-MB-231 12.2 µM | PC-3 21.1 µM | T47D 22.1 µM | NCI-H23 16.9 µM | HCT-116 6.05 µM | HT-29 3.24 µM | HOP-92 16 µM | SK-MEL-2 18.3 µM | MDA-MB-435 11.5 µM | SNB-75 14.2 µM | 786-0 10.8 µM | RXF 393 10.6 µM | MDA-N 12.2 µM | EKVX 19 µM | NCI-H460 16 µM | SF-539 12.9 µM | M14 4.1 µM

Cc1noc(NS(=O)(=O)c2ccc(NC(=O)c3ccc4nc5ccccc5c(Nc5ccc(S(=O)(=O)Nc6onc(C)c6C)cc5)c4c3)cc2)c1C
inactive: SW-620 97.7 µM | KM12 > 100 µM | HOP-62 > 100 µM | MDA-MB-231 22.1 µM | PC-3 > 100 µM | T47D 40.2 µM | NCI-H23 > 100 µM | HCT-116 > 100 µM | HT-29 73.3 µM | HOP-92 > 100 µM | SK-MEL-2 > 100 µM | MDA-MB-435 > 100 µM | SNB-75 > 100 µM | 786-0 56.8 µM | RXF 393 40.3 µM | MDA-N > 100 µM | EKVX > 100 µM | NCI-H460 67.3 µM | SF-539 > 100 µM | M14 > 100 µM
